Test results published in patent US20240368214A1, “POSITIVE NMDA-MODULATING COMPOUNDS AND METHODS OF USE THEREOF” (SAGE THERAPEUTICS, INC., priority 2021, published 2024).
Where two headings read alike, the source gives them in different places.

Biological target: T1, recombinant human GluN1/GluN2A receptor (Homo sapiens, UniProt Q05586+Q12879)
T1 construct: expressed in transfected cells; host or cells: HEK293, tetracycline-inducible expression
Experiment: Whole-cell patch clamp of mammalian cells (Syncropatch 384i), NMDA modulation
Type: cell-based
Procedure, shortened: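 HEK293 cells with tetracycline-induced (50 ng/ml, 18–24 h) human GluN1/GluN2A, automated whole-cell recording at −80 mV, pH 7.4 external. After 120 s compound pre-incubation, compound applied with glutamate 1 μM/glycine 100 μM; fold peak increase (Icomp/Icontrol)−1 over 8 concentrations fitted four-parameter logistic.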

[1] = Table E-2, HEK293 cells, human GluN1/GluN2A, glutamate 1 μM / glycine 100 μM, -80 mV, peak amplitude increase
[2] = Table E-2, HEK293 cells, human GluN1/GluN2A, glutamate 1 μM / glycine 100 μM, -80 mV, peak amplitude increase, read-out: EC50
[3] = Table G-2, HEK293 cells, human GluN1/GluN2A, glutamate 1 μM / glycine 100 μM, -80 mV, peak amplitude increase
[4] = Table G-2, HEK293 cells, human GluN1/GluN2A, glutamate 1 μM / glycine 100 μM, -80 mV, peak amplitude increase, read-out: EC50
[5] = Table A-2, HEK293 cells, human GluN1/GluN2A, glutamate 1 μM / glycine 100 μM, -80 mV, peak amplitude increase, read-out: EC50
[6] = Table A-2, HEK293 cells, human GluN1/GluN2A, glutamate 1 μM / glycine 100 μM, -80 mV, peak amplitude increase
[7] = Table C-2, HEK293 cells, human GluN1/GluN2A, glutamate 1 μM / glycine 100 μM, -80 mV, peak amplitude increase, read-out: EC50

T1 sequence (Q12879 23-1464, other chains not shown): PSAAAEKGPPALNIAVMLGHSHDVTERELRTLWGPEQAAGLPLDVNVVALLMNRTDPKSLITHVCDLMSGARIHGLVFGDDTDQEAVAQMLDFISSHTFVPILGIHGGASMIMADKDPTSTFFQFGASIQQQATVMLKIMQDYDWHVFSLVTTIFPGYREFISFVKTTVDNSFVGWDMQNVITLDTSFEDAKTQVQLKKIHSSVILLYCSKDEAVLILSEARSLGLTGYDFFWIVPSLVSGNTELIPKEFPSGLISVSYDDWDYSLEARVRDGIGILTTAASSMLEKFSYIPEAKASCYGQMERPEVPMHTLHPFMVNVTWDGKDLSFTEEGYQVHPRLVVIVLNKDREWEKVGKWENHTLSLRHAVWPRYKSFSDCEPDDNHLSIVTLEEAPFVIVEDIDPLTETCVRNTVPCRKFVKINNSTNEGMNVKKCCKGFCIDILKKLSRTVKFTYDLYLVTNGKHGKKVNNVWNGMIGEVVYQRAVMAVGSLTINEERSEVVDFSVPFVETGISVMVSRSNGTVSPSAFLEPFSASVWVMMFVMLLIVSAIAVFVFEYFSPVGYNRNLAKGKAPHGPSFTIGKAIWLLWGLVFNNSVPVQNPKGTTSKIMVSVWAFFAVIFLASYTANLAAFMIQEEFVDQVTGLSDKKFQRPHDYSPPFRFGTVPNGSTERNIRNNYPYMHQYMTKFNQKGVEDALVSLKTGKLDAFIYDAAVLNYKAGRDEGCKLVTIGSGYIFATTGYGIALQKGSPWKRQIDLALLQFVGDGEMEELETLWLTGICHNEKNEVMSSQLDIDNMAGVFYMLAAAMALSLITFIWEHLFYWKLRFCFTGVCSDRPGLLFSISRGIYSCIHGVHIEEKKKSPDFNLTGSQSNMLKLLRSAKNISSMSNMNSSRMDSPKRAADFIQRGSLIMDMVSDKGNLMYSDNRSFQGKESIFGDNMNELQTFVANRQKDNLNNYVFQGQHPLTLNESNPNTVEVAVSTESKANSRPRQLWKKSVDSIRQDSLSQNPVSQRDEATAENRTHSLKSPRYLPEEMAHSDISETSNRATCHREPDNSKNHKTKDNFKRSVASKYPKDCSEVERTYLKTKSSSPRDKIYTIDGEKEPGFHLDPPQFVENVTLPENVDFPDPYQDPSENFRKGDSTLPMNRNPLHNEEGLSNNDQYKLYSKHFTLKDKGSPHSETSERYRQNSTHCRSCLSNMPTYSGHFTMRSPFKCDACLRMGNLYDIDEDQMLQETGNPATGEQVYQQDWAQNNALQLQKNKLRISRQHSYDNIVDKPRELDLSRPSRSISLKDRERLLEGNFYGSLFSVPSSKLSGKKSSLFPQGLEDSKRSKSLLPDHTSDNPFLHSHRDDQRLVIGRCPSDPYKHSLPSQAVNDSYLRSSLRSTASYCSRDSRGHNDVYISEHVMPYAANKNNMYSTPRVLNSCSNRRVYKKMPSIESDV

`CC[C@]1(O)CC[C@@H]2CC[C@@H]3[C@H](CC[C@]4(C)[C@@H]([C@H](C)CC[C@@](C)(O)C(F)(F)F)CC[C@@H]34)[C@@]2(C)CC1` [Compound D-2, (1R,3aS,3bR,5aS,8S,10aS,10bS,12aR)-8-ethyl-10a,12a-dimethyl-1-((2R,5R)-6,6,6-trifluoro-5-hydroxy-5-methylhexan-2-yl)octadecahydrocyclohepta[a]cyclopenta[f]naphthalen-8-ol] was tested, and the Emax (Table D-2, HEK293 cells, human GluN1/GluN2A, glutamate 1 μM / glycine 100 μM, -80 mV, peak amplitude increase) was < 100% and the EC50 (Table D-2, HEK293 cells, human GluN1/GluN2A, glutamate 1 μM / glycine 100 μM, -80 mV, peak amplitude increase, read-out: EC50) was > 1000 nM.
Work on `CC(C)[C@@H](O)CC[C@@H](C)[C@H]1CCC[C@H]2[C@@H]3CC=C4C[C@@](C)(O)CC[C@]4(C)[C@H]3CC[C@]12C` [Compound H-7, (2S,4aR,4bS,6aR,7R,10aS,10bS)-7-((2R,5S)-5-hydroxy-6-methylheptan-2-yl)-2,4a,6a-trimethyl-1,2,3,4,4a,4b,5,6,6a, 7,8,9,10,10a, 10b,11-hexadecahydrochrysen-2-ol] yielded an EC50 (Table H-2, HEK293 cells, human GluN1/GluN2A, glutamate 1 μM / glycine 100 μM, -80 mV, peak amplitude increase, read-out: EC50) of 100 to 500 nM.
In the case of `CC[C@]1(O)CC[C@]2(C)C3=CC[C@]4(C)[C@@H]([C@H](C)CCC(C)(C)O)CC[C@H]4[C@@H]3CC[C@H]2C1` [Compound E-5, (3S,5S,8S,10S,13R,14S,17R)-3-ethyl-17-((R)-5-hydroxy-5-methylhexan-2-yl)-10,13-dimethyl-2,3,4,5,6,7,8,10,12,13,14,15,16,17-tetradecahydro-1H-cyclopenta[a]phenanthren-3-ol], the Emax [1] is reported as 100 to 200% and the EC50 [2] is reported as 1 to 100 nM.
With `CC[C@]1(O)CC[C@@]2(CC)[C@@H](CC[C@H]3[C@@H]4CC[C@H]([C@H](C)CC[C@](C)(O)C(F)(F)F)[C@@]4(C)CC[C@@H]32)C1` [Compound G-5, (3S,5S,8S,9S,10S,13R,14S,17R)-3,10-diethyl-13-methyl-17-((2R,5S)-6,6,6-trifluoro-5-hydroxy-5-methylhexan-2-yl)hexadecahydro-1H-cyclopenta[a]phenanthren-3-ol] the Emax [3] was > 200% and the EC50 [4] was 1 to 100 nM.
In the case of `CC[C@]1(O)CC[C@@]2(C)[C@@H](CC[C@@H]3[C@@H]2CC[C@]2(C)[C@@H]([C@H](CCCC(C)(C)O)C(F)(F)F)CC[C@@H]32)C1` [Compound A-18, (3S,5S,8R,9S,10S,13S,14S,17R)-3-ethyl-10,13-dimethyl-17-((S)-1,1,1-trifluoro-6-hydroxy-6-methylheptan-2-yl)hexadecahydro-1H-cyclopenta[a]phenanthren-3-ol], the EC50 [5] is reported as > 1000 nM.
With `CC[C@]1(O)CC[C@@]2(CC)[C@@H](CC[C@H]3[C@@H]4CC[C@H]([C@H](C)CCCC(C)(C)O)[C@@]4(C)CC[C@@H]32)C1` [Compound G-3, (3S,5S,8S,9S,10S,13R,14S,17R)-3,10-diethyl-17-((R)-6-hydroxy-6-methylheptan-2-yl)-13-methylhexadecahydro-1H-cyclopenta[a]phenanthren-3-ol] the Emax [3] was 100 to 200% and the EC50 [4] was 1 to 100 nM.
`CC[C@H](CC[C@](C)(O)C(F)(F)F)[C@H]1CC[C@H]2[C@@H]3CC[C@H]4C[C@](O)(CC)CC[C@]4(C)[C@H]3CC[C@]12C` [Compound A-3, (3S,5S,8R,9S,10S,13R,14S,17R)-3-ethyl-10,13-dimethyl-17-((3R,6S)-7,7,7-trifluoro-6-hydroxy-6-methylheptan-3-yl)hexadecahydro-1H-cyclopenta[a]phenanthren-3-ol] was tested, and the Emax [6] was > 200% and the EC50 [5] was 1 to 100 nM.
In the case of `CC(C)[C@@H](O)CC[C@@H](C)[C@H]1CC[C@H]2[C@@H]3CC[C@H]4C[C@@](C)(O)CC[C@]4(C)C3=CC[C@]12C` [Compound E-12, (3S,5S,8S,10S,13R,14S,17R)-17-((2R,5S)-5-hydroxy-6-methylheptan-2-yl)-3,10,13-trimethyl-2,3,4,5,6,7,8,10,12,13,14,15,16,17-tetradecahydro-1H-cyclopenta[a]phenanthren-3-ol], the Emax [1] is reported as 100 to 200% and the EC50 [2] is reported as 1 to 100 nM.
For `C[C@H](CCC1(O)CC1)[C@H]1CC[C@H]2[C@@H]3CC[C@H]4C[C@@](C)(O)CC[C@]4(C)C3=CC[C@]12C` [Compound E-15, (3S,5S,8S,10S,13R,14S,17R)-17-((R)-4-(1-hydroxycyclopropyl)butan-2-yl)-3,10,13-trimethyl-2,3,4,5,6,7,8,10,12,13,14,15,16,17-tetradecahydro-1H-cyclopenta[a]phenanthren-3-ol], the EC50 [2] was 1 to 100 nM.
For `CC[C@]1(O)CC[C@@]2(C)C(=CC[C@H]3[C@@H]4CC[C@H]([C@H](C)CC[C@@H](O)C(C)(C)C#N)[C@@]4(C)CC[C@@H]32)C1` [Compound C-12], the EC50 was 1 to 100 nM and the Emax (Table C-2, HEK293 cells, human GluN1/GluN2A, glutamate 1 μM / glycine 100 μM, -80 mV, peak amplitude increase) was > 200%.
`C[C@H](CC[C@H](O)C1(C#N)CCC1)[C@H]1CC[C@H]2[C@@H]3CC[C@H]4C[C@@](C)(O)CC[C@]4(C)C3=CC[C@]12C` [Compound C-30, 1-((1S,4R)-1-hydroxy-4-((3S,5S,8S,10S,13R,14S,17R)-3-hydroxy-3,10,13-trimethyl-2,3,4,5,6,7,8,10,12,13,14,15,16,17-tetradecahydro-1H-cyclopenta[a]phenanthren-17-yl)pentyl)cyclobutane-1-carbonitrile] gave an EC50 [7] of 100 to 500 nM and an EC50 [2] of 100 to 500 nM.
Molecule `CC[C@]1(O)CC[C@@]2(C)[C@@H](CC[C@@H]3[C@@H]2CC[C@]2(C)[C@@H]([C@@H](CC[C@](C)(O)C(F)(F)F)OC)CC[C@@H]32)C1` [Compound A-24, (3S,5S,8R,9S,10S,13S,14S,17S)-3-ethyl-10,13-dimethyl-17-((1R,4S)-5,5,5-trifluoro-4-hydroxy-1-methoxy-4-methylpentyl) hexadecahydro-1H-cyclopenta[a]phenanthren-3-ol] has an EC50 [5] of 100 to 500 nM.
`C[C@H](CC[C@@](C)(O)C(F)(F)F)[C@H]1CC[C@H]2[C@@H]3CC[C@H]4C[C@@](C)(O)CC[C@]4(C)C3=CC[C@]12C` [Compound E-14, (3S,5S,8S,10S,13R,14S,17R)-3,10,13-trimethyl-17-((2R,5R)-6,6,6-trifluoro-5-hydroxy-5-methylhexan-2-yl)-2,3,4,5,6,7,8,10,12,13,14,15,16,17-tetradecahydro-1H-cyclopenta[a]phenanthren-3-ol] showed an EC50 [2] of 100 to 500 nM.
For `CC[C@]1(O)CC[C@@]2(C)C(=CC[C@H]3[C@@H]4CC[C@H]([C@H](C)CC[C@@H](O)C5(C#N)CCC5)[C@@]4(C)CC[C@@H]32)C1` [Compound C-19, 1-((1R,4R)-4-((3S,8S,9S,10R,13R,14S,17R)-3-ethyl-3-hydroxy-10,13-dimethyl-2,3,4,7,8,9,10,11,12,13,14,15,16,17-tetradecahydro-1H-cyclopenta[a]phenanthren-17-yl)-1-hydroxypentyl)cyclobutane-1-carbonitrile], the EC50 [7] was 1 to 100 nM.
In the case of `CC[C@]1(O)CC[C@@]2(C)[C@@H](CC[C@@H]3[C@@H]2CC[C@]2(C)[C@@H]([C@@H](CC[C@@H](O)C(C)C)OC)CC[C@@H]32)C1` [Compound A-6, (3S,5S,8R,9S,10S,13S,14S,17S)-3-ethyl-17-((1R,4R)-4-hydroxy-1-methoxy-5-methylhexyl)-10,13-dimethylhexadecahydro-1H-cyclopenta[a]phenanthren-3-ol], the Emax [6] is reported as > 200% and the EC50 [5] is reported as 100 to 500 nM.
`CC[C@]1(O)CC[C@@]2(C)[C@@H](CC[C@H]3[C@@H]4[C@H](C)C[C@H]([C@H](C)CC[C@](C)(O)C(F)(F)F)[C@@]4(C)CC[C@@H]32)C1` [Compound B-15, (3S,5S,8R,9S,10S,13R,14S,15R,17R)-3-ethyl-10,13,15-trimethyl-17-((2R,5S)-6,6,6-trifluoro-5-hydroxy-5-methylhexan-2-yl)hexadecahydro-1H-cyclopenta[a]phenanthren-3-ol] gave an Emax (Table B-2, HEK293 cells, human GluN1/GluN2A, glutamate 1 μM / glycine 100 μM, -80 mV, peak amplitude increase) of 100 to 200% and an EC50 (Table B-2, HEK293 cells, human GluN1/GluN2A, glutamate 1 μM / glycine 100 μM, -80 mV, peak amplitude increase, read-out: EC50) of 1 to 100 nM.
In the case of `CC[C@]1(O)CC[C@]2(C)C3=CC[C@]4(C)[C@@H]([C@H](C)CC[C@](C)(O)C(F)(F)F)CC[C@H]4[C@@H]3CC[C@H]2C1` [Compound E-3, (3S,5S,8S,10S,13R,14S,17R)-3-ethyl-10,13-dimethyl-17-((2R,5S)-6,6,6-trifluoro-5-hydroxy-5-methylhexan-2-yl)-2,3,4,5,6,7,8,10,12,13,14,15,16,17-tetradecahydro-1H-cyclopenta[a]phenanthren-3-ol], the Emax [1] is reported as > 200% and the EC50 [2] is reported as 1 to 100 nM.
Molecule `C[C@H](CC[C@@H](O)C(C)(C)C#N)[C@H]1CC[C@H]2[C@@H]3CC[C@H]4C[C@@](C)(O)CC[C@]4(C)C3=CC[C@]12C` [Compound C-34, (3R,6R)-3-hydroxy-6-((3S,5S,8S,10S,13R,14S,17R)-3-hydroxy-3,10,13-trimethyl-2,3,4,5,6,7,8,10,12,13,14,15,16,17-tetradecahydro-1H-cyclopenta[a]phenanthren-17-yl)-2,2-dimethylheptanenitrile] has an EC50 [7] of 1 to 100 nM and an EC50 [2] of 1 to 100 nM.
